We go through five compounds from patent publication US11130780B2, “Inhibitors of growth factor activation enzymes” (Washington University, priority 2015, dated 2021).

Where two headings read alike, the source gives them in different places. Residues, ends and D or L forms follow the SMILES beside them. *: point of attachment. AMC = Cc1cc(=O)oc2cc(N*)ccc12; Boc = CC(C)(C)OC(=O)*

Assay [1] deals with T1, matriptase (Homo sapiens, UniProt Q9Y5Y6).
T1 construct: Charles Craik, UCSF (obtained from another laboratory)
T1 sequence (Q9Y5Y6 615-855 limits assumed): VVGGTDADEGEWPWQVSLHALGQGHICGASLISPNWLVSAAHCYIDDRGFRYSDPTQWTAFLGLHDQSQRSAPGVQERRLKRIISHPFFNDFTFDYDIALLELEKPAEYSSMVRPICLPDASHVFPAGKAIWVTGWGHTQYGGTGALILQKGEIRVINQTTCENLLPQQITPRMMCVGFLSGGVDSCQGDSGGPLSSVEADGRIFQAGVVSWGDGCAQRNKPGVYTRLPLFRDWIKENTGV
Description: Km determination of fluorogenic substrate with matriptase. In kind it is biochemical. Here is the method: (§1) In black 384 well plates (Corning #3575), 12.5 nM HGFA was mixed with various amounts of Boc-QLR-AMC and 1 nM matriptase and 0.3 nM hepsin were mixed with various amounts of Boc-QAR-AMC. Changes in fluorescence (excitation at 380 nm and emission at 460 nn) were measured at room temperature over time in a Biotek Synergy 2 plate reader (Winnoski, Vt.). Using plots of the mean reaction velocity versus substrate concentration and the Michaelis-Menten enzyme kinetics equation within GraphPad Prism version 6.04 for Windows (GraphPad Software, San Diego, Calif., www.graphpad.com), the reaction Vmax and subsequent Km for each of the substrates were determined.

The target in assay [2] is T2, HGFA (Homo sapiens, UniProt Q04756).
T2 construct: His6 tag (N); seven amino acid spacer and seven amino acid TEV cleavage site (N); Honey Bee melittin signal peptide (N); made in house; host or cells: High 5 insect cells (baculovirus; virus raised in Sf9)
T2 sequence (Q04756 373-655): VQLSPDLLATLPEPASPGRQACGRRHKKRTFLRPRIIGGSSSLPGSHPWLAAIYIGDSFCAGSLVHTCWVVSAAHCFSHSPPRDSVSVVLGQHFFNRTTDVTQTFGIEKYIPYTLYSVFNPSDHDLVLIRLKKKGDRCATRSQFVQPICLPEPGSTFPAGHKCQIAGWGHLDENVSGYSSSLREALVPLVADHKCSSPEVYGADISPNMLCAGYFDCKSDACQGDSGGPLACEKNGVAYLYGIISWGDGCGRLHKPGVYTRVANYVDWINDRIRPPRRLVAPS
Description: Km determination of fluorogenic substrate with HGFA. In kind it is biochemical. Here is the method:
as §1

The target of another assay is Factor Xa (Homo sapiens, UniProt P00742). Put plainly: Chromogenic kinetic enzyme assay of Factor Xa. In kind it is biochemical. The following applies: read-out: Factor Xa Ki. The method, boiled down: (§2)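 Recombinant human thrombin (0.15 nM) or Factor Xa (0.35 nM) was mixed with 11-point inhibitor dilutions (0–20 μM, 2% DMSO) in TNC buffer, pH 8. Kinetic absorbance at 405 nm gave velocities. IC50 came from a four-parameter fit and Ki from Cheng–Prusoff.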

Another assay addresses Trypsin. Put plainly: Trypsin selectivity assay. In kind it is biochemical.
Assay [3] addresses T2, HGFA. Description: Fluorescent kinetic enzyme inhibitor assay of HGFA. In kind it is biochemical. The following applies: Fluorogenic Assay, read-out: HGFA Ki. The method, boiled down: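 Recombinant His-tagged HGFA residues 373-655 from insect cells, with substrate at Km. Inhibitors in 11-point dilutions, 0-20 μM final, 2% DMSO, fluorescence (ex 380/em 460 nm) followed over time at room temperature. IC50 from four-parameter fit of mean velocity, average of three experiments.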

The target of assay [4] is T1, matriptase. Description: Fluorescent kinetic enzyme inhibitor assay of matriptase. In kind it is biochemical. The following applies: Table 9.1; Fluorogenic Assay. Put shortly:
(§3)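 Fluorescence (ex 380/em 460 nm) followed kinetically at room temperature; IC50 from four-parameter fit of mean velocity versus concentration, averaged over three experiments.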

The target in another assay is T3, hepsin (Homo sapiens, UniProt P05981).
T3 construct: purchased R&D Systems 4776-SE-010
Put plainly: Fluorescent kinetic enzyme inhibitor assay of hepsin. In kind it is biochemical. The following applies: Table 9.1; Fluorogenic Assay; read-out: Hepsin Ki. Put shortly: as §3

The next assay addresses thrombin (Homo sapiens, UniProt P00734). Put plainly: Chromogenic kinetic enzyme assay of thrombin. The following applies: read-out: Thrombin Ki. Type of assay: biochemical. Put shortly: as §2
The subject of a further assay is MDA-MB-231 cells. Description: MRC5-mediated migration and invasion of MDA-MB-231 cells through Matrigel. In kind it is cell-based, human. The following applies: 1 μM, 24 hour. Here is the method:
MRC5 fibroblasts were plated in the bottom well of a Boyden chamber, and incubated overnight to condition the attractant media. The following day, MDA-MB-231 or T47D cells+/−inhibitors were plated above on Matrigel coated inserts (8.0 μm membrane inserts, 12-well; Corning 3422) and incubated in FBS media overnight. Inhibitors were added to fresh media and then cells were plated above on the inserts. The cells were fixed and stained at the 24 hour time point. The inserts were then removed and mounted on glass plates where the number of migrated cells were imaged and counted at 4 fields per membrane using a light microscope at 20×.

For assay [5], the target named is T4, HGFA (Homo sapiens, UniProt Q04756).
T4 sequence (Q04756 408-655 limits assumed): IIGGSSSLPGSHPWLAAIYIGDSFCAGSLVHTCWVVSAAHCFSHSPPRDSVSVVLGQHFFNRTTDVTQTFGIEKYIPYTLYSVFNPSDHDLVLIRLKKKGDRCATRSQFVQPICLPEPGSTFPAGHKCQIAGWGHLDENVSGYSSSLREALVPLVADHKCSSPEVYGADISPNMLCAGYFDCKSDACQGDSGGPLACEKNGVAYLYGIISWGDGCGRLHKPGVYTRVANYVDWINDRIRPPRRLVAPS
T4 sequence (Q04756 373-407 partner limits assumed): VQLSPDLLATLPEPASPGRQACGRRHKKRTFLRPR
Description: Kinetic parameters of ACC substrates (Table 11.4). Type of assay: biochemical. An excerpt: Results for MSP-MS profiling for HGFA substrate cleavage and specificity can be seen in FIG. 20 and Tables 11.1-11.4. IceLogo graphs can be seen in FIGS. 21A and 21B.

Setting [6] is: Table 6.2, headed Fluorogenic Assay.

Chain of Factor Xa (P00742 235-488 limits assumed): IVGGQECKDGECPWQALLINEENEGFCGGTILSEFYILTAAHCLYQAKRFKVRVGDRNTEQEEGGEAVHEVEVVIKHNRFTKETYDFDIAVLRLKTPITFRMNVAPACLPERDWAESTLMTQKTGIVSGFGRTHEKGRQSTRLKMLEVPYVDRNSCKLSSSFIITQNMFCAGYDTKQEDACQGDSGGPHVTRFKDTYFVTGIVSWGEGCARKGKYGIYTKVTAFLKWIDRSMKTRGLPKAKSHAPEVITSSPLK
Chain of Factor Xa (P00742 41-179 partner limits assumed): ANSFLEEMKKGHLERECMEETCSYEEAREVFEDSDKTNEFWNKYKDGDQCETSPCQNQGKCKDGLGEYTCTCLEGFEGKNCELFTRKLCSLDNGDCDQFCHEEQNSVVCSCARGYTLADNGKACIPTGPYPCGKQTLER
T3 sequence (P05981 163-417 limits assumed): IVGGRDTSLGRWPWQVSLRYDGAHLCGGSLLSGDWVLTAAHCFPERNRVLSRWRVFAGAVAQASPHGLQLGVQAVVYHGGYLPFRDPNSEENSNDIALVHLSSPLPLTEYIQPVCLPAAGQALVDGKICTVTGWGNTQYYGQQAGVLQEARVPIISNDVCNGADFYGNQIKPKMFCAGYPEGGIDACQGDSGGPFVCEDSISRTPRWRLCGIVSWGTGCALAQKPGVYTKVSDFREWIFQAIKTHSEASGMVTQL
T3 sequence (P05981 45-162 partner limits assumed): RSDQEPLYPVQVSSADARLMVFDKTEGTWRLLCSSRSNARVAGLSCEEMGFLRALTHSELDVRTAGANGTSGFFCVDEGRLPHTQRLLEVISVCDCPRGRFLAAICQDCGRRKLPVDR

Regarding `Cc1cc(=O)oc2cc(NC(=O)[C@H](CCCNC(=N)N)NC(=O)[C@H](C)NC(=O)[C@H](CCC(N)=O)NC(=O)OC(C)(C)C)ccc12` [Boc-QAR-AMC] (Boc-Gln-Ala-Arg-{AMC}), the Km (commonly the substrate concentration at which the rate is half of its maximum) on matriptase [1] was 93 µM.

With `Cc1cc(=O)oc2cc(NC(=O)[C@H](CCCNC(=N)N)NC(=O)[C@H](CC(C)C)NC(=O)[C@H](CCC(N)=O)NC(=O)OC(C)(C)C)ccc12` [Boc-QLR-AMC] (Boc-Gln-Leu-Arg-{AMC}), the Km at HGFA [2] is 37 µM.

Turning to `N=C(N)c1cccc(C[C@H](NS(=O)(=O)c2ccc3ccccc3c2)C(=O)N2CCN(C(=O)NCc3ccc(Br)cc3)CC2)c1` [Compound 25a, (S)—N-(4-Bromobenzyl)-4-(3-(3-carbamimidoylphenyl)-2-(naphthalene-2-sulfonamido)propanoyl)piperazine-1-carboxamide], the Ki (commonly the equilibrium dissociation constant of an inhibitor or competing ligand from its target) on Factor Xa (Table 9.4) is 4560 nM; at Trypsin (Table 9.4) it was 2.2 nM; at HGFA [3] (Table 9.1), 16200 nM; on matriptase [4], 4200 nM; at hepsin, 48 nM; at thrombin (Table 9.4) it was 3110 nM.

As to `CC(=O)N[C@@H](CCCCN)C(=O)N[C@@H](CCCNC(=N)N)C(=O)N[C@@H](CC(C)C)C(=O)N[C@@H](CCCNC(=N)N)C(=O)c1nc2ccccc2s1` [Compound 7054, Ac-KRLR(SEQ ID NO: 8)-Kbt], the Ki at Factor Xa (setting [6]) was 91.9 nM; on Trypsin (setting [6]), 0.82 nM; on HGFA [3] (Table 6.1), 6 nM; on thrombin (setting [6]), above 20000 nM. The “MRC5-mediated migration and invasion” value with MDA-MB-231 cells is “abrogate”.

On to Ac-His(3Bom)-Agp-hLeu-Arg-ACC, for which, on HGFA [5], the Km stood at 52.1 µM.
